# Earlier results in paper PMC10325900, “A conserved motif in the disordered linker of human MLH1 is vital for DNA mismatch repair and its function is diminished by a cancer family mutation” (Nucleic Acids Research, 2023).
# Tested on: yMLH1-yPMS1
# Parameters: method as in Torres et al. [100]
# Details: 25mer yeast peptide, molar ratio 0-250-500-1000 to yMLH1-PMS1, MLH1-PMS2 35 nM, 1 mM Mn2+; ref Torres et al. [100]; cited from earlier work
sequence,measurement,value
KAKRQENKL VRI D ASQAKITSFLSS [25mer],effect of peptide on endonuclease activation of yMLH1-yPMS1,inhibiting endonuclease activit y
